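1) Cells in 96-well plates. 2) Compound, 48 h, 5 concentrations. 3) Linear interpolation between surrounding doses. 4) Unreached endpoint = highest concentration. Here, GI50 denotes the concentration required for 50% inhibition of growth.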 Activity calls are given as the source filed them. No stated cut-off is given here; in the data, active = GI50 up to about 1.1 µM and inactive = higher.
What was measured:
Assay in all cases: inhibition of tumour cell growth, NCI panel, 48 h
CAKI-1 = system: CAKI-1
HOP-62 = system: HOP-62
HOP-92 = system: HOP-92
IGROV-1 = system: IGROV-1
KM12 = system: KM12
M14 = system: M14
Malme-3M = system: Malme-3M
NCI-H226 = system: NCI-H226
SF-539 = system: SF-539
SK-MEL-5 = system: SK-MEL-5
SK-OV-3 = system: SK-OV-3
SNB-75 = system: SNB-75
U-251 = system: U-251
786-0 = system: 786-0
CCRF-CEM = system: CCRF-CEM
K562 = system: K562
NCI-H522 = system: NCI-H522
RXF 393 = system: RXF 393
SK-MEL-2 = system: SK-MEL-2

SMILES | GI50 (CAKI-1) | GI50 (HOP-62) | GI50 (HOP-92) | GI50 (IGROV-1) | GI50 (KM12) | GI50 (M14) | GI50 (Malme-3M) | GI50 (NCI-H226) | GI50 (SF-539) | GI50 (SK-MEL-5) | GI50 (SK-OV-3) | GI50 (SNB-75) | GI50 (U-251) | GI50 (786-0) | GI50 (CCRF-CEM) | GI50 (K562) | GI50 (NCI-H522) | GI50 (RXF 393) | GI50 (SK-MEL-2)
Cc1ccccc1NC(=O)CC(=O)N1N=C(N2c3ccccc3Sc3ccccc32)CC1c1ccccc1 (stereo not given) | > 100 µM (inactive) | > 100 µM (inactive) | > 100 µM (inactive) | > 100 µM (inactive) | > 100 µM (inactive) | > 100 µM (inactive) | > 100 µM (inactive) | > 100 µM (inactive) | > 100 µM (inactive) | > 100 µM (inactive) | > 100 µM (inactive) | > 100 µM (inactive) | > 100 µM (inactive) |  |  |  |  |  | 
COC(=O)/C(C#N)=C1\CCC(O)N1C (stereo not given) | > 100 µM (inactive) | > 100 µM (inactive) |  | > 100 µM (inactive) | > 100 µM (inactive) | > 100 µM (inactive) | > 100 µM (inactive) | > 100 µM (inactive) | > 100 µM (inactive) |  | > 100 µM (inactive) | > 100 µM (inactive) | > 100 µM (inactive) | > 100 µM (inactive) | > 100 µM (inactive) | > 100 µM (inactive) | > 100 µM (inactive) | > 100 µM (inactive) | > 100 µM (inactive)
CC(=O)NC1=C(NCC(C)(C)C)C(=O)c2ccccc2C1=O |  | > 100 µM (inactive) |  | > 100 µM (inactive) | 82.6 µM (inactive) | > 100 µM (inactive) | 34.3 µM (inactive) | > 100 µM (inactive) | 32.9 µM (inactive) | 40.2 µM (inactive) | > 100 µM (inactive) | 96.6 µM (inactive) | 65 µM (inactive) | > 100 µM (inactive) | 38.5 µM (inactive) | 38.2 µM (inactive) | 18.9 µM (inactive) | 37 µM (inactive) | 69 µM (inactive)
CCCCc1ccc(-n2c3nc(=O)n(C)c(=O)c-3nc3ccccc32)cc1 | 18.4 µM (inactive) | 18.2 µM (inactive) |  | 13.6 µM (inactive) | 11.2 µM (inactive) | 7.89 µM (inactive) | 7.6 µM (inactive) | 11.7 µM (inactive) | 14.1 µM (inactive) | 1.52 µM (inactive) | 37.7 µM (inactive) | 15.3 µM (inactive) | 10.6 µM (inactive) | 16.3 µM (inactive) | 13.5 µM (inactive) | 12.4 µM (inactive) | 7.6 µM (inactive) | 18.4 µM (inactive) | 10.9 µM (inactive)
C=CCNC1=NC(=O)C(CC(=O)Nc2cccc(Cl)c2)S1 (stereo not given) | > 100 µM (inactive) | > 100 µM (inactive) |  | > 100 µM (inactive) | > 100 µM (inactive) | > 100 µM (inactive) | > 100 µM (inactive) | > 100 µM (inactive) | > 100 µM (inactive) | > 100 µM (inactive) | > 100 µM (inactive) | > 100 µM (inactive) | > 100 µM (inactive) | > 100 µM (inactive) | > 100 µM (inactive) | > 100 µM (inactive) | > 100 µM (inactive) | > 100 µM (inactive) | > 100 µM (inactive)
COC(=O)C1=C2CCC(=O)[C@@]2(C)C(OC(C)=O)C=CC1 (stereo not given in full) | > 100 µM (inactive) | > 100 µM (inactive) |  | > 100 µM (inactive) | > 100 µM (inactive) | 88.9 µM (inactive) | > 100 µM (inactive) | > 100 µM (inactive) | 49.3 µM (inactive) | > 100 µM (inactive) | > 100 µM (inactive) | 56.8 µM (inactive) | 59.6 µM (inactive) | > 100 µM (inactive) | 22.9 µM (inactive) | 30.8 µM (inactive) |  | > 100 µM (inactive) | 71.6 µM (inactive)
COc1ccc(NC(=O)CC(=O)n2nc(C)c(/N=N/c3ccccc3C(=O)O)c2C)cc1 | > 100 µM (inactive) | > 100 µM (inactive) |  | > 100 µM (inactive) | > 100 µM (inactive) | > 100 µM (inactive) | > 100 µM (inactive) |  | > 100 µM (inactive) | > 100 µM (inactive) | 40.3 µM (inactive) | 33 µM (inactive) | > 100 µM (inactive) | 77.3 µM (inactive) | > 100 µM (inactive) | > 100 µM (inactive) | > 100 µM (inactive) |  | > 100 µM (inactive)
Cn1cnc([N+](=O)[O-])c1Sc1nc2cc([N+](=O)[O-])ccc2[nH]1 | 12.6 µM (inactive) | > 100 µM (inactive) | 17.3 µM (inactive) | 19 µM (inactive) | 34.9 µM (inactive) | 34.4 µM (inactive) | > 10 µM (inactive) | 40.2 µM (inactive) | 19.1 µM (inactive) | 15.5 µM (inactive) | 22 µM (inactive) | 26.2 µM (inactive) | 27 µM (inactive) | 42.4 µM (inactive) | 15.4 µM (inactive) | 24.8 µM (inactive) |  | 17.5 µM (inactive) | 
N#CNC1=NC(CCCC(=O)Nc2cccc([N+](=O)[O-])c2)=C(c2nc3ccccc3[nH]2)C(N)N1 (stereo not given) | > 100 µM (inactive) | > 100 µM (inactive) |  | > 100 µM (inactive) | > 100 µM (inactive) | > 100 µM (inactive) | > 100 µM (inactive) | > 100 µM (inactive) | > 100 µM (inactive) | > 100 µM (inactive) | > 100 µM (inactive) | > 100 µM (inactive) |  | > 100 µM (inactive) | > 100 µM (inactive) | > 100 µM (inactive) | > 100 µM (inactive) | > 100 µM (inactive) | > 100 µM (inactive)
Cc1ccc(C2=C(c3ccccc3)C(Br)(c3ccc(C)cc3)C(c3ccccc3)=C2c2ccc(C)cc2)cc1 | > 100 µM (inactive) | > 100 µM (inactive) | > 100 µM (inactive) | > 100 µM (inactive) | > 100 µM (inactive) | > 100 µM (inactive) | > 100 µM (inactive) |  | > 100 µM (inactive) | > 100 µM (inactive) | > 100 µM (inactive) |  | > 100 µM (inactive) | > 100 µM (inactive) | > 100 µM (inactive) | > 100 µM (inactive) |  |  | > 100 µM (inactive)
CC1CC2=Nc3ccccc3NC(c3ccccc3)C2=C(O)O1 (stereo not given) |  | > 100 µM (inactive) |  | > 100 µM (inactive) | > 100 µM (inactive) | > 100 µM (inactive) | > 100 µM (inactive) | > 100 µM (inactive) | > 100 µM (inactive) | > 100 µM (inactive) | > 100 µM (inactive) | > 100 µM (inactive) | > 100 µM (inactive) | > 100 µM (inactive) | > 100 µM (inactive) | > 100 µM (inactive) | 47.1 µM (inactive) | > 100 µM (inactive) | > 100 µM (inactive)
CC(C(=O)C(C)O[Si](c1ccccc1)(c1ccccc1)C(C)(C)C)=P(c1ccccc1)(c1ccccc1)c1ccccc1 (stereo not given) | 3.21 µM (inactive) | 3.09 µM (inactive) | 2.21 µM (inactive) | 3.7 µM (inactive) | 3.61 µM (inactive) | 4.32 µM (inactive) | 3.13 µM (inactive) | 3.3 µM (inactive) | 3.89 µM (inactive) | 2.75 µM (inactive) | 2.42 µM (inactive) | 3.41 µM (inactive) | 4.01 µM (inactive) | 4.06 µM (inactive) | 3.5 µM (inactive) | 2.95 µM (inactive) |  |  | 2.5 µM (inactive)
CCCCC1=CSC(c2ccccc2)=C(c2ccccc2)S1 |  |  | 11.7 µM (inactive) | > 100 µM (inactive) | 42.3 µM (inactive) | 85.1 µM (inactive) |  | > 100 µM (inactive) | > 100 µM (inactive) | 23.9 µM (inactive) | > 100 µM (inactive) | 57 µM (inactive) | 30.9 µM (inactive) | 87.5 µM (inactive) | 21.6 µM (inactive) | 8.83 µM (inactive) |  |  | 
COc1cc(/C=C2\CCC(C)C3=C2N=c2s/c(=C/c4ccc(Cl)cc4)c(=O)n2C3c2cc(OC)c(OC)c(OC)c2)cc(OC)c1OC (stereo not given) | > 100 µM (inactive) | > 100 µM (inactive) | > 100 µM (inactive) | 20.5 µM (inactive) | > 100 µM (inactive) | > 100 µM (inactive) |  |  |  | > 100 µM (inactive) | > 100 µM (inactive) | 0.277 µM (active) | > 100 µM (inactive) | > 100 µM (inactive) | > 100 µM (inactive) | > 100 µM (inactive) |  | > 100 µM (inactive) | > 100 µM (inactive)
Cc1cc(Cl)ccc1/N=C1/NC(=O)C(CC(=O)Nc2cccc(C)c2C)S1 (stereo not given) | 23.6 µM (inactive) | 24 µM (inactive) | 1.41 µM (inactive) | 34.8 µM (inactive) | 32.4 µM (inactive) | 18.1 µM (inactive) | 24.2 µM (inactive) |  | 21.5 µM (inactive) | 20.4 µM (inactive) | 30.4 µM (inactive) | 19.9 µM (inactive) | 26.2 µM (inactive) | 20.8 µM (inactive) | 22.2 µM (inactive) | 24.8 µM (inactive) |  |  | 20.8 µM (inactive)
CC1Cc2c(N)nc(N3CCOCC3)nc2NC1=O (stereo not given) |  | > 100 µM (inactive) |  | > 100 µM (inactive) | > 100 µM (inactive) | > 100 µM (inactive) | > 100 µM (inactive) | > 100 µM (inactive) | > 100 µM (inactive) | > 100 µM (inactive) | > 100 µM (inactive) | 5.53 µM (inactive) | > 100 µM (inactive) | > 100 µM (inactive) | > 100 µM (inactive) | > 100 µM (inactive) | > 100 µM (inactive) | > 100 µM (inactive) | > 100 µM (inactive)
CSc1nc(NC(=O)O)c(N(C(C)=O)C(=O)O)c(=O)n1C | > 100 µM (inactive) |  | > 100 µM (inactive) | > 100 µM (inactive) | > 100 µM (inactive) | > 100 µM (inactive) | > 100 µM (inactive) | > 100 µM (inactive) | > 100 µM (inactive) | > 100 µM (inactive) |  |  | > 100 µM (inactive) | > 100 µM (inactive) | > 100 µM (inactive) | > 100 µM (inactive) |  | > 100 µM (inactive) | > 100 µM (inactive)
